According to patent US6075057A, “Inhibition of carbohydrates metabolism by quinone compounds” (priority 1997, dated 2000):

What was measured:
[1] = biological target: T1, β-galactosidase (EC 3.2.1.23, grade XI) (Aspergillus oryzae, UniProt Q2UCU3); assay: Initial screening assay for enzyme inhibition, β-galactosidase (Asp. oryzae); format: biochemical; conditions: 2% MeOH, read-out: % Enzyme activity relative to control
T1 construct: purchased Sigma; host or cells: Aspergillus oryzae
Description: (§1) Optically pure enantiomers of avarol were synthetically prepared. A survey of potential inhibitory activity by avarol against twelve glycosidases was performed according to general procedures^15 (see experimental section). The enzymes tested and their biological sources are listed in Table 1 along with any pertinent references found for a given enzyme. In order to determine a working range for enzyme and substrate concentrations in which the rate of product formation was linear and steady-state kinetics were applicable, initial rate studies with varying substrate concentrations were performed in the absence of inhibitor. The Michaelis constants (Km 's) and Vmax values for these enzymes were determined from these plots using standard graphical analysis procedures as described in ref. 17 and are summarized in Table 2.
(§2) Enzymatic Assays. Piperazine-N,N'-bix-(2-ethanesulfonic acid)(PIPES) buffer, enzymes, and substrates were purchased from Sigma and used as received. Buffer solutions and enzymes (desiccated) were stored at 4° C. p-Nitrophenyl glycoside substrates were stored desiccated at -20° C. Enzyme inhibition assays and initial rate studies were carried out with the appropriate p-nitrophenyl glycoside substrates following the general procedure of Kajimoto et al., J. Am. Chem. Soc. 113:6187 (1991) with the exception that amyloglucosidase (EC 3.2,1.3, Asp. niger) was assayed following the method of Saul et al., Arch. Biochem. Biophys. 221:593 (1983). Assays were performed in a Perkin-Elmer Lambda Array 3840 Spectrophotometer using the built-in drive method (resolution=0.25, average=8) in a quartz cuvette (1 cm pathlength). Background absorption spectra were acquired using millipore filtered water as medium. Steady-state kinetics were maintained by adjusting the amount of enzyme used in each assay so that less than 10% of the substrate was converted to product for the duration of the reaction. Reactions were monitored at 400 nm (the absorbance of the p-nitrophenol product, ε=3204.5 M^-1 cm^-1) for a given amount of time and the initial rates were calculated and expressed as μmols p-nitrophenol formed per unit enzyme per second. Absportion readings for control reactions were corrected for the small baseline absorbance at time zero. Small discrepancies between time zero absorbance readings in a given inhibition assay and a time zero reading in a control assay were used to correct the overall absorbance change calculated in the inhibition assay. […]
(§3) Typical assay: A 1.5-mL quartz cuvette was charged with 940 μL of PIPES-NaOAc buffer solution (pH 6.56), 20 μL of inhibitor solution, and 20 μL of enzyme solution. […] The reaction was monitored at 400 nm for 1 min and the absorbance change was used to calculate the initial hydrolysis rate. […]

[2] = biological target: T2, α-D-glucosidase (brewer's yeast) (Saccharomyces cerevisiae, UniProt P53341); assay: IC50 determination against α-D-glucosidase; format: biochemical
T2 construct: purchased Sigma; host or cells: brewer's yeast
Description: as §2, with “Background absorption spectra were acquired using millipore filtered water as medium. Steady-state kinetics were maintained by adjusting the amount of enzyme used in each assay so that less than 10% of the substrate was converted to product for the duration of the reaction.” left out

[3] = test system: amyloglucosidase (EC 3.2.1.3); assay: Initial screening assay for enzyme inhibition, amyloglucosidase; format: biochemical, Aspergillus niger; conditions: amyloglucosidase, 2% MeOH
Description: as §1
(§4) Enzymatic Assays. Piperazine-N,N'-bix-(2-ethanesulfonic acid)(PIPES) buffer, enzymes, and substrates were purchased from Sigma and used as received. Buffer solutions and enzymes (desiccated) were stored at 4° C. p-Nitrophenyl glycoside substrates were stored desiccated at -20° C. Enzyme inhibition assays and initial rate studies were carried out with the appropriate p-nitrophenyl glycoside substrates following the general procedure of Kajimoto et al., J. Am. Chem. Soc. 113:6187 (1991) with the exception that amyloglucosidase (EC 3.2,1.3, Asp. niger) was assayed following the method of Saul et al., Arch. Biochem. Biophys. 221:593 (1983). Assays were performed in a Perkin-Elmer Lambda Array 3840 Spectrophotometer using the built-in drive method (resolution=0.25, average=8) in a quartz cuvette (1 cm pathlength). Background absorption spectra were acquired using millipore filtered water as medium. Steady-state kinetics were maintained by adjusting the amount of enzyme used in each assay so that less than 10% of the substrate was converted to product for the duration of the reaction. Reactions were monitored at 400 nm (the absorbance of the p-nitrophenol product, ε=3204.5 M^-1 cm^-1) for a given amount of time and the initial rates were calculated and expressed as μmols p-nitrophenol formed per unit enzyme per second. Absportion readings for control reactions were corrected for the small baseline absorbance at time zero. Small discrepancies between time zero absorbance readings in a given inhibition assay and a time zero reading in a control assay were used to correct the overall absorbance change calculated in the inhibition assay. Inhibitors were dissolved in uv-grade absolute methanol.
(§5) Typical assay: A 1.5-mL quartz cuvette was charged with 940 μL of PIPES-NaOAc buffer solution (pH 6.56), 20 μL of inhibitor solution, and 20 μL of enzyme solution. The result was mixed well and then equilibrated at 37° C. for two minutes. 20 μL of the appropriate p-nitrophenyl glycoside solution was then added to initiate the reaction with rapid mixing. The reaction was monitored at 400 nm for 1 min and the absorbance change was used to calculate the initial hydrolysis rate. Lineweaver-Burk plots were constructed by repeating this procedure with varying substrate and inhibitor concentrations.

[4] = biological target: T3, α-glucosidase (brewer's yeast) (Saccharomyces cerevisiae, UniProt P53341); assay: Lineweaver-Burk analysis of inhibition of α-glucosidase; format: biochemical; conditions: replot of Lineweaver-Burk slopes, linear extrapolation; pH 6.56, 37° C.
T3 construct: purchased Sigma; host or cells: brewer's yeast
Excerpt: (§6) Initial screening assays with the enantiomeric avarols indicated significant activity by these compounds against only two of the twelve enzymes studies. […] This can occur when the two species compete for the same site or nearby sites on the enzyme. The equilibria that describe competitive inhibition are shown below. [drawing 3]
The equilibria describing this phenomenon are shown below. [drawing 4] The α factor represents the amount by which KS changes when I binds to the enzyme. The overall equilibrium constant for the formation of ESI remains the same regardless of which path was taken in its formation. Since the ES and ESI complexes are equally efficient in producing product, Vmax remains unchanged and Km is increased in the presence of inhibitor.
(§7) Enzymatic Assays. […] Reactions were monitored at 400 nm (the absorbance of the p-nitrophenol product, ε=3204.5 M^-1 cm^-1) for a given amount of time and the initial rates were calculated and expressed as μmols p-nitrophenol formed per unit enzyme per second. Absportion readings for control reactions were corrected for the small baseline absorbance at time zero. Small discrepancies between time zero absorbance readings in a given inhibition assay and a time zero reading in a control assay were used to correct the overall absorbance change calculated in the inhibition assay. […]

[5] = test system: β-glucosidase (EC 3.2.1.21); assay: Initial screening assay for enzyme inhibition, β-glucosidase; format: biochemical, almonds; conditions: 20 μM inhibitor, 2% MeOH
Description: as §1, §7

[6] = biological target: T4, β-galactosidase (EC 3.2.1.23) (Aspergillus niger, UniProt P29853); assay: Initial screening assay for enzyme inhibition, β-galactosidase (Asp. niger); format: biochemical; conditions: 2% MeOH, read-out: % Enzyme activity relative to control
T4 construct: purchased Sigma; host or cells: Aspergillus niger
Description: as §1, §2, §3

[7] = biological target: T5, α-D-mannosidase (jack bean) (Canavalia ensiformis, UniProt C0HJB3); assay: IC50 determination against α-D-mannosidase; format: biochemical; conditions: hot substrate solutions
T5 construct: purchased Sigma; host or cells: jack beans
Description: Enzymatic assays with a α-D-mannosidase (jack bean) were complicated by the higher Km of the enzyme (2.04 mM) requiring higher substrate concentrations and the relative insolubility of the .rho.-nitrophenyl mannoside substrate in aqueous media. The assay had to be performed using hot solutions of the substrate which were pipetted with some expected difficulty. Nonetheless, IC50 values of >40 μM and ~10 μM were obtained for the (+)- and (-)-enantiomers of avarol respectively.
as §7, with “Assays. Piperazine-N,N'-bix-(2-ethanesulfonic acid)(PIPES) buffer, enzymes, and substrates were purchased from Sigma and used as received. Buffer solutions and enzymes (desiccated) were stored at 4° C. p-Nitrophenyl glycoside substrates were stored desiccated at -20° C.” for “Assays.”

[8] = biological target: T6, β-xylosidase (EC 3.2.1.37) (Aspergillus niger, UniProt O00089); assay: Initial screening assay for enzyme inhibition, β-xylosidase; format: biochemical; conditions: 2% MeOH, read-out: % Enzyme activity relative to control
T6 construct: purchased Sigma; host or cells: Aspergillus niger
Description: as §1, §2, §3

[9] = biological target: T7, α-glucosidase (EC 3.2.1.20, type IV) (Saccharomyces cerevisiae, UniProt P53341); assay: Initial screening assay for enzyme inhibition, α-glucosidase; format: biochemical, brewer's yeast; conditions: for remaining activity at 10 µM: α-glucosidase, 10 μM inhibitor, 2% MeOH, read-out: % Enzyme activity relative to control
T7 construct: purchased Sigma; host or cells: brewer's yeast
Description: as §1, §6, §4, §5

T7 sequence (P53341 whole entry): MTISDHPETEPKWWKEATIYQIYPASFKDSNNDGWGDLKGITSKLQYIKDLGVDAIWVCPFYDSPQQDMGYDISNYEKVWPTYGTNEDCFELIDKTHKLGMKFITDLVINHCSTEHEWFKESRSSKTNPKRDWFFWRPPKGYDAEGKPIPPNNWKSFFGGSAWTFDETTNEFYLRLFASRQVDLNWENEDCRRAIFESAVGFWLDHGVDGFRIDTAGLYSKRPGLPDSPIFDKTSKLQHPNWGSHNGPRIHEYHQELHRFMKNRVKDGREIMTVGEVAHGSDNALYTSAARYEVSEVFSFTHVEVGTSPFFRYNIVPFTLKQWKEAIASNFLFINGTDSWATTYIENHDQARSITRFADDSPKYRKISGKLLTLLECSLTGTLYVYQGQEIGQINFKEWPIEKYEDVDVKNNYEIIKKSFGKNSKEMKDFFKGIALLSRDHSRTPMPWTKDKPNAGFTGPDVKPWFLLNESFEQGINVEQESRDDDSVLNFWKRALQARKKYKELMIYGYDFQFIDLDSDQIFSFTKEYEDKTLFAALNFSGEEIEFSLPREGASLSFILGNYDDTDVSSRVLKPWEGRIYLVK
T4 sequence (P29853 20-1006): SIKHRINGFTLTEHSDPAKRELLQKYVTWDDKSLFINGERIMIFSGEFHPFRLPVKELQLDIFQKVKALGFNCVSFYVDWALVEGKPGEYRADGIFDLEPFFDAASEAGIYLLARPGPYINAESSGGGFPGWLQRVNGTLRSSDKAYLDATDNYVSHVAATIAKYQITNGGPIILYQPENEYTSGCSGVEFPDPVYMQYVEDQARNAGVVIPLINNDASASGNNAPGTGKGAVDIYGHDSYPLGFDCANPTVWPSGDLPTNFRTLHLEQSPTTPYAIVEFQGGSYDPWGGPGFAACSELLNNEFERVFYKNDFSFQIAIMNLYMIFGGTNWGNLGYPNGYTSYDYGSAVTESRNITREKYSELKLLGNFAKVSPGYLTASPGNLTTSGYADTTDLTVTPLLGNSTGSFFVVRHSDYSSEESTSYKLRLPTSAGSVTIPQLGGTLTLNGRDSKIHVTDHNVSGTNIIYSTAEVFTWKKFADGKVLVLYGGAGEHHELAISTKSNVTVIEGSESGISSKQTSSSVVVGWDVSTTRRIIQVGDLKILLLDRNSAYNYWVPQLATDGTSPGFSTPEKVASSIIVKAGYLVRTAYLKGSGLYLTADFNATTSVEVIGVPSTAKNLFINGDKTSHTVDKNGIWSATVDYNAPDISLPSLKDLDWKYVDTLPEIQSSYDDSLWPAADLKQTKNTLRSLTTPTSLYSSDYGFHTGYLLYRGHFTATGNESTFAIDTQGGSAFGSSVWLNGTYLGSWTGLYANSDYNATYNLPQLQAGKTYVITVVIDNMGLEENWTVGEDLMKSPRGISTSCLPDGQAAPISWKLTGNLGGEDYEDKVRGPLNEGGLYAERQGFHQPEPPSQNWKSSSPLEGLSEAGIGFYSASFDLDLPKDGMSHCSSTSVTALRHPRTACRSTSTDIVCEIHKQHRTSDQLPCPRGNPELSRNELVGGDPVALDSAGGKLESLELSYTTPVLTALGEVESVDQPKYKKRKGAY
T5 sequence (C0HJB3 1-562 limits assumed): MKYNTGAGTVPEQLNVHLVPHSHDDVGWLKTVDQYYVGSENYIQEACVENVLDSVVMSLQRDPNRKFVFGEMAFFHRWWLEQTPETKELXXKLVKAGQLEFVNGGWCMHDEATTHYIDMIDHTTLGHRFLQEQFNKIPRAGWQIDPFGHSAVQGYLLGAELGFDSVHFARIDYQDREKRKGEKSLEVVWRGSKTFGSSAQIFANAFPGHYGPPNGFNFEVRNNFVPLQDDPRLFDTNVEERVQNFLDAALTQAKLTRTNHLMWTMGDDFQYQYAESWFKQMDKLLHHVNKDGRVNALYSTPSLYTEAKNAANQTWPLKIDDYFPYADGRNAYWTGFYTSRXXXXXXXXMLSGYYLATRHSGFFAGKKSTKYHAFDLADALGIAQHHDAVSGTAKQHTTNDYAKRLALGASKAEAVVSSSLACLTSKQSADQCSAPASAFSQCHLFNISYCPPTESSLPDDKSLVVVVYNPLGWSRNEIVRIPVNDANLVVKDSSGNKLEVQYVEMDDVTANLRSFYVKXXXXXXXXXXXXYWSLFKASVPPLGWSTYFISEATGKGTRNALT
T5 sequence (C0HJB3 563-981 limits assumed): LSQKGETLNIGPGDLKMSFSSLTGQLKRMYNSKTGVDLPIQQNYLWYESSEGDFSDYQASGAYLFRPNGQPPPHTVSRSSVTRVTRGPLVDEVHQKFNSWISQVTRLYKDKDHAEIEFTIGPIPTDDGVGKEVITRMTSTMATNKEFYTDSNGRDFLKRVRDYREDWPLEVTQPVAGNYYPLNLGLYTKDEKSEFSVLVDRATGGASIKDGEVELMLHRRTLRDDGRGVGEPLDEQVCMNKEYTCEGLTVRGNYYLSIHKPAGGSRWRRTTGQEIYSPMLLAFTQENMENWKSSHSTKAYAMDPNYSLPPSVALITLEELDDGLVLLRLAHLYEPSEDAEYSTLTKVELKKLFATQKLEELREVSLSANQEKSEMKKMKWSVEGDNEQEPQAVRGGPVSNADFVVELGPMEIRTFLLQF
T2 sequence (P53341 whole entry): as the sequence (P53341 whole entry) above
T3 sequence (P53341 whole entry): as above
T6 sequence (O00089 27-804): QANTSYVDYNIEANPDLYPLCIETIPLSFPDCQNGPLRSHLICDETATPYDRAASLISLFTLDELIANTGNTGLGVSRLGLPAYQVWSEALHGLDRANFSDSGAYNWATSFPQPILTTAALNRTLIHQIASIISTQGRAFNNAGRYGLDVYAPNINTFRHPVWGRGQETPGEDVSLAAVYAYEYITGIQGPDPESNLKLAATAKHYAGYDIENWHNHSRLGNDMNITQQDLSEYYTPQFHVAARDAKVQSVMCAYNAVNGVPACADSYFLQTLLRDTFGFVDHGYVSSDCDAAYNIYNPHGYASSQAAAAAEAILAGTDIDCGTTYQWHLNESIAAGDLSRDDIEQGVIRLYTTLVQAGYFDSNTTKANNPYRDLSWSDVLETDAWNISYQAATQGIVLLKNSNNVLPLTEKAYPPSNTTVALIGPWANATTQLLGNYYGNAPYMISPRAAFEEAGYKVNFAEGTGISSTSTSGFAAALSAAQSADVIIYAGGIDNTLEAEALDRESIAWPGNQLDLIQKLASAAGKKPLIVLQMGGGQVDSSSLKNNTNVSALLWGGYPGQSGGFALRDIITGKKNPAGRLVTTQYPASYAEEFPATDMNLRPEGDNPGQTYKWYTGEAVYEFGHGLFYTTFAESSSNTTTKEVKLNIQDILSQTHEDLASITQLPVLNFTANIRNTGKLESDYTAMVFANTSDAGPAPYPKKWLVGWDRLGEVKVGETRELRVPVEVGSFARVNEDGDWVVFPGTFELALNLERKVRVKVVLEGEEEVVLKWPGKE
T1 sequence (Q2UCU3 19-1005): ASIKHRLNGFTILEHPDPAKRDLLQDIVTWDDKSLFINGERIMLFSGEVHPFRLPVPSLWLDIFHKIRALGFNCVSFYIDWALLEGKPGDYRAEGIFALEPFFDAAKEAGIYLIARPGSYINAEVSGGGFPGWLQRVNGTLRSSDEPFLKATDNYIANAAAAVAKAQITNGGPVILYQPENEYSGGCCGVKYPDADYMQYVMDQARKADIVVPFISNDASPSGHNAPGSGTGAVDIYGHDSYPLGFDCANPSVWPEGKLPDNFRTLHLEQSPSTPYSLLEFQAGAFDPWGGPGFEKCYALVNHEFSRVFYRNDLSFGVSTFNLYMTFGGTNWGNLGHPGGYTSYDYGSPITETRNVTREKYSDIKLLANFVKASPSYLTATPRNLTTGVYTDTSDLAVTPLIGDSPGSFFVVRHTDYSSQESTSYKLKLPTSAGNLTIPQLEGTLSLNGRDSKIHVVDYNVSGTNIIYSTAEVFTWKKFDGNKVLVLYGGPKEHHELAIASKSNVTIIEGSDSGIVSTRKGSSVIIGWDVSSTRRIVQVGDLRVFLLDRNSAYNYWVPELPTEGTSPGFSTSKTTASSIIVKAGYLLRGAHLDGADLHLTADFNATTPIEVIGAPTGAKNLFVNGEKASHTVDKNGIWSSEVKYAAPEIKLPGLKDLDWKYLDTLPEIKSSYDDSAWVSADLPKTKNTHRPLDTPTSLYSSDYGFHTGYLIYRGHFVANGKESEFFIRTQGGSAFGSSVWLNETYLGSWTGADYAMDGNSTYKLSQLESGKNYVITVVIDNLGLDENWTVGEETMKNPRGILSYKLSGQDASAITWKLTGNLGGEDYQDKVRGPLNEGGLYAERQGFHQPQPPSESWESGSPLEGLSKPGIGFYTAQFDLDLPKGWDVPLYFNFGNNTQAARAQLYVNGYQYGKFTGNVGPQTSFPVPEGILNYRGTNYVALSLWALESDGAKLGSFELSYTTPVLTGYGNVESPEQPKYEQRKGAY

Row | Structure (SMILES) | remaining activity at 40 µM ([1]; 40 μM inhibitor) | IC50 [2] | % Enzyme activity relative to control ([3]; 40 μM inhibitor) | Ki [4] | % Enzyme activity relative to control [5] | remaining activity at 40 µM ([6]; 40 μM inhibitor) | IC50 [7] | remaining activity at 40 µM ([8]; 40 μM inhibitor) | remaining activity at 10 µM [9] | remaining activity at 20 µM ([1]; 20 μM inhibitor) | % Enzyme activity relative to control ([3]; 20 μM inhibitor) | remaining activity at 20 µM ([6]; 20 μM inhibitor) | remaining activity at 20 µM ([8]; 20 μM inhibitor) | activity versus naturally-occurring enantiomer, α-glucosidase (in words) ([9]; versus (+)-avarol)
1 | CC1=CCC[C@H]2[C@](C)(Cc3cc(O)ccc3O)[C@@H](C)CC[C@]12C [(+)-avarol, (+)-Avarol] | 100% | > 20 µM | 113% | 25 µM | 102% | 104% | > 40 µM | 100% | 63% |  |  |  |  | 
2 | CC1=CCC[C@@H]2[C@@](C)(Cc3cc(O)ccc3O)[C@H](C)CC[C@@]12C [(-)-avarol] |  | 7.6 µM |  | 9.5 µM | 96% |  | ~10 µM |  | 43% | 99% | 94% | 111% | 91% | significantly more active than the naturally-occurring enantiomer
